The structures appear in SMILES notation. Values after ≈ are worked out from the molar mass of the structure shown.

Data set [1] is described as follows: Solubility of the compound. It is filed as physicochemical.
Data set [2] in a line: Toxicity (LD50) in the mouse. Conditions: in vivo. An excerpt: (§1) The compound of the invention has been pharmacologically tested.
(§2) As regards the toxicity the following results were found: […]

A further data set in a line: Kinetic tests in the rat. It is filed as in vivo.
A short description of data set [3]: Toxicity (LD50) in the rat. The conditions noted are these: in vivo.
Excerpt: as §1, §2

A further data set deals with Trichomonas vaginalis. The experiment in a line: Minimum inhibiting concentration in five strains, in comparison with metronidazole. Conditions: for MIC: average over five strains of Trichomonas vaginalis, metronidazole as 1 mg/ml solution in dimethyl sulfoxide, compound of the invention as 1 mg/ml water solution. In kind it is cell-based. As for the experimental part:
The minimum inhibiting concentration (MIC) was investigated in five strains of Trichomonas vaginalis, in comparison with metronidazole.
Metronidazole was tested in form of a solution in dimethyl sulfoxide at a concentration of 1 mg/ml whereas the compound of the invention was tested in form of a water solution at a concentration of 1 mg/ml.

For the molecule `Cc1ncc([N+](=O)[O-])n1CCOC(=O)NCCCCC(N)C(=O)O` (centres unmarked) [compound of the invention, N-(5-carboxy-5-aminopentan)-carbamic ester of 1-(2-hydroxyethyl)-2-methyl-5-nitro-imidazole], in data set [1] (anhydrous alcohols, acetone and chloroform), the “solubility in anhydrous alcohols, acetone and chloroform” value is reported as “insoluble”. For the same molecule, the solubility in water entry in data set [1] (water) is given as “perfectly soluble in water”. For the same molecule, the LD50 in data set [2] (ip) was more than 4000 mg/kg; in data set [2] (po, per os) it was more than 4000 mg/kg; in data set [3] (ip), 870 mg/kg; in data set [3] (po, per os), 1620 mg/kg. Moreover, the conversion into metronidazole entry in “Kinetic tests in the rat” (in the organism and in acidic environment) was “not converted into metronidazole neither in the organism nor in acidic environnment”. Also, the dose excreted in the data set “Kinetic tests in the rat” (urine, after parenteral administration, read-out: urinary excretion) was less than 30%. For the same molecule, the minimal inhibitory concentration (MIC) in the data set on Trichomonas vaginalis turned out to be 2.5 µg/mL (≈ 7.28 µM). In addition, the microbiological activity result in the data set on Trichomonas vaginalis (preliminary tests, compared with metronidazole) is listed as “greater microbiological activity”.

Molecule `Cc1ncc([N+](=O)[O-])n1CCO` [metronidazole, 1-(2-hydroxyethyl)-2-methyl-5-nitro-imidazole] returned a minimal inhibitory concentration (MIC) with Trichomonas vaginalis of 5 µg/mL (≈ 29.2 µM).

One may read the LD50 as the dose expected to kill half of the subjects tested. Higher therefore signals lower toxicity. As a reminder, the MIC is the lowest concentration that inhibits growth of the organism. Read a high MIC as a less susceptible organism.

Source of the values: patent publication EP0140395A1, “Water soluble derivatives of 1-(2-hydroxyethyl)-2-methyl-5-nitro-imidazole having therapeutical activity, process for its preparation and related pharmaceutical compositions” (Pietro Isnardi & C. Spa, priority 1983, dated 1985).
